Laboratory results from ChEMBL document CHEMBL4706749, “Development of Fluorescence Imaging Probes for Labeling COX-1 in Live Ovarian Cancer Cells” (ACS Med Chem Lett, 2021).

Columns and labels:
[1] = Drug uptake in human OVCAR-3 cells by measuring perinuclear fluorescence staining at 10 uM incubated for 30 mins by Hoechst-33258 staining based confocal laser scanning microscopic analysis; format: ADME, cell-based; details: ovcar-3, 0.5 h
[2] = Drug uptake in human COX1-negative HCA7 cells at 10 uM incubated for 30 mins by Hoechst-33258 staining based confocal laser scanning microscopic analysis; format: ADME, cell-based; details: hca7, 0.5 h

O=C(O)c1ccc(-n2nc(-c3ccco3)cc2-n2cc(CNc3ccc([N+](=O)[O-])c4nonc34)nn2)cc1
Drug uptake [1]: Active | Drug uptake [2]: Not Active
